One data set has as its system HCT-8. Nature of the data set: Cytotoxicity against human HCT8 cells after 72 hrs by MTT assay. The class given is functional, cell-based. Particulars: HCT-8, 72 h.
Another data set relates to BGC-823. Kind of data set: Cytotoxicity against human BGC823 cells after 72 hrs by MTT assay. Particulars: BGC-823, 72 h. In kind it is functional, cell-based. Background: Tetrazolium assays rely on reduction of a dye to a coloured formazan, in cell work by metabolically active cells.
A further data set relates to KB. Nature of the data set: Cytotoxicity against human KB cells after 72 hrs by MTT assay. In kind it is functional, cell-based.
The next data set deals with A549. Nature of the data set: Cytotoxicity against human A549 cells after 72 hrs by MTT assay. In kind it is functional, cell-based. Particulars: A549, 72 h.
Data set [1] can be described thus: Selectivity ratio of IC50 for human embryo lung fibroblast to IC50 for human KB cells. In kind it is ADME, cell-based. The conditions noted are these: human embryo lung fibroblasts and KB cells.
Data set [2] is described as follows: Cytotoxicity against human embryo lung fibroblast after 72 hrs by MTT assay. The class given is cell-based.

≈ marks a conversion by molar mass, not a printed value. Where only a bound is given, the exact number is not on record here.

On to `CCCCOC(=O)[C@H]1O[C@@H](O[C@H]2CC[C@@]3(C)C(CC[C@]4(C)[C@@H]3CC=C3[C@@H]5CC(C)(C)[C@@H](OC(=O)/C=C(\C)CCC=C(C)C)[C@H](OC(=O)C(C)CC)[C@]5(CO)[C@H](O)[C@H](O)[C@]34C)C2(C)C)[C@H](O[C@@H]2O[C@H](CO)[C@@H](O)[C@H](O)[C@H]2O)[C@@H](O)[C@@H]1O[C@@H]1O[C@@H](CO)[C@H](O)[C@H]1O` (some centres not stated), for which the IC50 – broadly, the point on the concentration scale where inhibition reaches its midpoint – with HCT-8 is 2.86 µg/mL (≈ 2.26 µM); in the data set with BGC-823, 7.29 µg/mL (≈ 5.75 µM).

As to `COC(=O)[C@H]1O[C@@H](O[C@H]2CC[C@@]3(C)C(CC[C@]4(C)[C@@H]3CC=C3[C@@H]5CC(C)(C)[C@@H](O)[C@H](O)[C@]5(CO)[C@H](O)[C@H](O)[C@]34C)C2(C)C)[C@H](O[C@@H]2O[C@H](CO)[C@@H](O)[C@H](O)[C@H]2O)[C@@H](O)[C@@H]1O[C@@H]1O[C@@H](CO)[C@H](O)[C@H]1O` (some centres not stated), the IC50 in the data set with KB is 0.3 µg/mL (≈ 0.303 µM); in the data set with HCT-8, 6.8 µg/mL (≈ 6.86 µM); in the data set on A549, 0.66 µg/mL (≈ 0.666 µM); in data set [2], more than 10 µg/mL. The selectivity ratio in data set [1] is more than 33.

`CCCCOC(=O)[C@H]1O[C@@H](O[C@H]2CC[C@@]3(C)C(CC[C@]4(C)[C@@H]3CC=C3[C@@H]5CC(C)(C)C[C@H](OC(=O)/C=C(\C)CCC=C(C)C)[C@]5(CO)[C@H](O)[C@H](O)[C@]34C)C2(C)C)[C@H](O[C@@H]2O[C@H](CO)[C@@H](O)[C@H](O)[C@H]2O)[C@@H](O)[C@@H]1O[C@@H]1O[C@@H](CO)[C@H](O)[C@H]1O` (some centres not stated): the IC50 in the data set on HCT-8 was determined as 4.04 µg/mL (≈ 3.46 µM).

On to `CCC(C)C(=O)O[C@H]1[C@H](OC(=O)/C=C(\C)CCC=C(C)C)C(C)(C)C[C@H]2C3=CC[C@@H]4[C@@]5(C)CC[C@H](O[C@@H]6O[C@H](C(=O)OC)[C@@H](O[C@@H]7O[C@@H](CO)[C@H](O)[C@H]7O)[C@H](O)[C@H]6O[C@@H]6O[C@H](CO)[C@@H](O)[C@H](O)[C@H]6O)C(C)(C)C5CC[C@@]4(C)[C@]3(C)[C@@H](O)[C@@H](O)[C@]21CO` (some centres not stated) [SYMPLOCOSOSIDE A], for which the IC50 with KB was 1.72 µg/mL (≈ 1.4 µM); in the data set on HCT-8, 4.31 µg/mL (≈ 3.52 µM); in the data set on A549, 0.67 µg/mL (≈ 0.547 µM); in data set [2] it was 4.62 µg/mL (≈ 3.77 µM).

The values are drawn from ChEMBL document CHEMBL1148962, “Cytotoxic triterpenoid saponins from Symplocos chinensis” (J Nat Prod, 2004).
